The values below come from patent US12421210B2, “Fused bicyclic heterocycles as therapeutic agents” (NEW YORK UNIVERSITY, priority 2018, dated 2025).

The structures appear in SMILES notation. Like-named read-outs stand apart in the source and are kept apart here.

In this experiment the target is human NAMPT enzyme (His-hNAMPT) (Homo sapiens (Human), UniProt P43490). The experiment in a line: NAMPT enzymatic inhibition assay (fluorescence, NADH product). The format is biochemical.
The mark [1] stands for this setting: [HDB], read-out: NAMPT IC50 (μM) [HDB].
Where [2] appears, read: [BPS], read-out: NAMPT IC50 (μM) [BPS].

Chain of human NAMPT enzyme (His-hNAMPT) (P43490 whole entry): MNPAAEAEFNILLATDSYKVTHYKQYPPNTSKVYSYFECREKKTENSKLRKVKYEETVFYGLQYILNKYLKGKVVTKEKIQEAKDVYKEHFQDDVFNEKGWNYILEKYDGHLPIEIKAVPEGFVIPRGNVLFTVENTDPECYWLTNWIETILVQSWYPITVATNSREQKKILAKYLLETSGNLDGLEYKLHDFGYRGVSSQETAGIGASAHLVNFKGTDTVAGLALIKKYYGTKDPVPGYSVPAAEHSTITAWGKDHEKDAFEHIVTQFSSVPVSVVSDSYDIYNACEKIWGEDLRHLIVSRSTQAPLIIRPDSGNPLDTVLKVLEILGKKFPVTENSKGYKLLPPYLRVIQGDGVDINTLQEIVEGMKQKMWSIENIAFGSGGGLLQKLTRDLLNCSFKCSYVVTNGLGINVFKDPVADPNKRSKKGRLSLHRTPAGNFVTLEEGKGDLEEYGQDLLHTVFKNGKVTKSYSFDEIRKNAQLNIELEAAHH

As a reminder, the IC50 is the midpoint of a concentration-inhibition curve. `CC(c1ccccc1)N1C[C@@H]2[C@@H](CCNC(=O)/C=C/c3cccnc3)[C@@H]2C1` (stereo partly drawn) [Example 249, (E)-N-(2-((1R,5S,6s)-3-(1-phenylethyl)-3-azabicyclo[3.1.0]hexan-6-yl)ethyl)-3-(pyridin-3-yl)acrylamide]: the IC50 under setting [1] was 0.01 to 0.49 µM. Same read-out and setting: then `O=C(/C=C/c1cccnc1)NCC[C@@H]1[C@H]2CN(CCc3ccc(F)cc3)C[C@@H]12` [Example 250, (E)-N-(2-((1R,5S,6s)-3-(4-fluorophenethyl)-3-azabicyclo[3.1.0]hexan-6-yl)ethyl)-3-(pyridin-3-yl)acrylamide], with 0.01 to 0.49 µM; and `O=C(/C=C/c1cccnc1)NCC[C@@H]1[C@H]2CN(Cc3cc(Cl)cc(Cl)c3)C[C@@H]12` [Example 251, (E)-N-(2-((1R,5S,6s)-3-(3,5-dichlorobenzyl)-3-azabicyclo[3.1.0]hexan-6-yl)ethyl)-3-(pyridin-3-yl)acrylamide], with 0.01 to 0.49 µM. Take `CC(C)(C)OC(=O)N1C[C@@H]2[C@H](C1)[C@H]2C(O)CNC(=O)/C=C/c1ccc(N)nc1` (stereo partly drawn) [Example 252, (1R,5S,6r)-tert-butyl 6-(2-((E)-3-(6-aminopyridin-3-yl)acrylamido)-1-hydroxyethyl)-3-azabicyclo[3.1.0]hexane-3-carboxylate]: the IC50 under setting [2] lay within 1 to 29 µM.

On to `CC(C)(C)OC(=O)N1C[C@@H]2[C@H](C1)[C@H]2C(O)CNC(=O)/C=C/c1cccnc1` (stereo partly drawn) [Example 253, (1R,5S,6r)-tert-butyl 6-(1-hydroxy-2-((E)-3-(pyridin-3-yl)acrylamido)ethyl)-3-azabicyclo[3.1.0]hexane-3-carboxylate], for which the IC50 under setting [2] fell in the range of 0.01 to 0.49 µM. The same measure, in the same setting: next, `CC(C)(C)OC(=O)N1C[C@@H]2[C@H](C1)[C@H]2C(F)CNC(=O)/C=C/c1ccc(N)nc1` (stereo partly drawn) [Example 254, (1R,5S,6r)-tert-butyl 6-(2-((E)-3-(6-aminopyridin-3-yl)acrylamido)-1-fluoroethyl)-3-azabicyclo[3.1.0]hexane-3-carboxylate]: 0.01 to 0.49 µM; `CC(C)(C)OC(=O)N1C[C@@H]2[C@H](C1)[C@H]2C(F)CNC(=O)/C=C/c1cccnc1` (stereo partly drawn) [Example 255, (1R,5S,6r)-tert-butyl 6-(1-fluoro-2-((E)-3-(pyridin-3-yl)acrylamido)ethyl)-3-azabicyclo[3.1.0]hexane-3-carboxylate]: 0.01 to 0.49 µM. Turning to `CC(C)(C)OC(=O)N1C[C@H]2C[C@@H](CNC(=O)N3Cc4ccncc4C3)C[C@H]2C1` [Example 267, tert-butyl (3aR,5r,6aS)-5-((2,3-dihydro-1H-pyrrolo[3,4-c]pyridine-2-carboxamido)methyl)hexahydrocyclopenta[c]pyrrole-2(1H)-carboxylate], the IC50 under setting [2] was 0.01 to 0.49 µM. The same measure, in the same setting: next, `CC(C)(C)OC(=O)N1C[C@H]2CC(CNC(=O)NCc3cccnc3)C[C@H]2C1` (stereo partly drawn) [Example 268, tert-butyl 5-((3-(pyridin-3-ylmethyl)ureido)methyl)hexahydrocyclopenta[c]pyrrole-2(1H)-carboxylate]: 0.5 to 0.99 µM; `CC(C)(C)OC(=O)N1CCC2CC(CNC(=O)NCc3cccnc3)CC2C1` (stereo not drawn) [Example 271, tert-butyl 6-((3-(pyridin-3-ylmethyl)ureido)methyl)hexahydro-1H-cyclopenta[c]pyridine-2(3H)-carboxylate]: 1 to 29 µM. The same measure, in the same setting: then `CC(C)(C)OC(=O)N1CCC2CC(CNC(=O)N3Cc4ccncc4C3)CC2C1` (stereo not drawn) [Example 272, tert-butyl 6-((2,3-dihydro-1H-pyrrolo[3,4-c]pyridine-2-carboxamido)methyl)hexahydro-1H-cyclopenta[c]pyridine-2(3H)-carboxylate], with 0.01 to 0.49 µM; and `CC(C)(C)OC(=O)N1C[C@H]2C[C@H](CNC(=O)N3Cc4ccncc4C3)C[C@H]2C1` [Example 273, (3aR,5s,6aS)-tert-butyl 5-((2,3-dihydro-1H-pyrrolo[3,4-c]pyridine-2-carboxamido)methyl)hexahydrocyclopenta[c]pyrrole-2(1H)-carboxylate], with 1 to 29 µM; and `CC(C)(C)OC(=O)N1C[C@H]2C[C@@H](CCNC(=O)/C=C/c3cccnc3)C[C@H]2C1` [Example 274, (3aR,5r,6aS)-tert-butyl 5-(2-((E)-3-(pyridin-3 yl)acrylamido)ethyl)hexahydrocyclopenta[c]pyrrole-2(1H)-carboxylate], with 0.01 to 0.49 µM. The same measure, in the same setting: next, `CC(C)(C)OC(=O)N1C[C@H]2C[C@@H](CCNC(=O)COc3cccnc3)C[C@H]2C1` [Example 275, (3aR,5r,6aS)-tert-butyl 5-(2-(2-(pyridin-3-yloxy)acetamido)ethyl)hexahydrocyclopenta[c]pyrrole-2(1H)-carboxylate]: 0.5 to 0.99 µM. `O=C(/C=C/c1cccnc1)NCC[C@@H]1[C@H]2CN(C(c3ccccc3)c3ccccc3)C[C@@H]12` [Example 276, (E)-N-(2-((1R,5S,6s)-3-benzhydryl-3-azabicyclo[3.1.0]hexan-6-yl)ethyl)-3-(pyridin-3-yl)acrylamide]: under setting [1], the IC50 is < 0.01 µM. The same measure, in the same setting: next, `O=C(/C=C/c1cccnc1)NCC[C@@H]1[C@H]2CN(c3nc(N4CCOCC4)ncc3F)C[C@@H]12` [Example 277, (E)-N-(2-((1R,5S,6s)-3-(5-fluoro-2-morpholinopyrimidin-4-yl)-3-azabicyclo[3.1.0]hexan-6-yl)ethyl)-3-(pyridin-3-yl)acrylamide]: < 0.01 µM. Take `O=C(/C=C/c1cccnc1)NCC[C@@H]1[C@H]2CN(c3nc(OC4CCCC4)ncc3F)C[C@@H]12` [Example 278, (E)-N-(2-((1R,5S,6s)-3-(2-(cyclopentyloxy)-5-fluoropyrimidin-4-yl)-3-azabicyclo[3.1.0]hexan-6-yl)ethyl)-3-(pyridin-3-yl)acrylamide]: the IC50 under setting [1] is < 0.01 µM. Still for that read-out and setting: next, `CC(C)(C)OC(=O)N1C[C@@H]2[C@H](CCNC(=O)/C=C/c3cccnc3)[C@@H]2C1` [Example 279, (1R,5S,6r)-tert-butyl 6-(2-((E)-3-(pyridin-3-yl)acrylamido)ethyl)-3-azabicyclo[3.1.0]hexane-3-carboxylate]: 0.01 to 0.49 µM.

For the compound `O=C(/C=C/c1cccnc1)NCC[C@H]1[C@H]2CN(Cc3ccccc3)C[C@@H]12` [Example 280, (E)-N-(2-((1R,5S,6r)-3-benzyl-3-azabicyclo[3.1.0]hexan-6-yl)ethyl)-3-(pyridin-3-yl)acrylamide], the IC50 under setting [1] lay in the range of 0.01 to 0.49 µM. On the same count and under the same terms, next, `O=C(/C=C/c1cccnc1)NCC[C@H]1[C@H]2CN(c3ccccc3)C[C@@H]12` [Example 281, (E)-N-(2-((1R,5S,6r)-3-phenyl-3-azabicyclo[3.1.0]hexan-6-yl)ethyl)-3-(pyridin-3-yl)acrylamide]: 0.01 to 0.49 µM. On the same count and under the same terms, next, `O=C(O)COc1ncc(F)c(N2C[C@@H]3[C@@H](CCNC(=O)/C=C/c4cccnc4)[C@@H]3C2)n1` [Example 282, 2-((5-fluoro-4-((1R,5S,6s)-6-(2-((E)-3-(pyridin-3-yl)acrylamido)ethyl)-3-azabicyclo[3.1.0]hexan-3-yl)pyrimidin-2-yl)oxy)acetic acid]: 0.01 to 0.49 µM. Same read-out and setting: then `NC(=O)C(c1ccccc1)N1C[C@@H]2[C@@H](CCNC(=O)/C=C/c3cccnc3)[C@@H]2C1` (stereo partly drawn) [Example 283, (E)-N-(2-((1R,5S,6s)-3-(2-amino-2-oxo-1-phenylethyl)-3-azabicyclo[3.1.0]hexan-6-yl)ethyl)-3-(pyridin-3-yl)acrylamide], with < 0.01 µM; and `NC(=O)COc1ncc(F)c(N2C[C@@H]3[C@@H](CCNC(=O)/C=C/c4cccnc4)[C@@H]3C2)n1` [Example 285, (E)-N-(2-((1R,5S,6s)-3-(2-(2-amino-2-oxoethoxy)-5-fluoropyrimidin-4-yl)-3-azabicyclo[3.1.0]hexan-6-yl)ethyl)-3-(pyridin-3-yl)acrylamide], with < 0.01 µM; and `O=C(/C=C/c1cccnc1)NCC[C@@H]1[C@H]2CN(C(CO)c3ccccc3)C[C@@H]12` (stereo partly drawn) [Example 286, (E)-N-(2-((1R,5S,6s)-3-(2-hydroxy-1-phenylethyl)-3-azabicyclo[3.1.0]hexan-6-yl)ethyl)-3-(pyridin-3-yl)acrylamide], with 0.01 to 0.49 µM. On to `O=C(/C=C/c1cccnc1)NCC[C@@H]1[C@H]2CN(c3nc(-c4ccccc4)ncc3F)C[C@@H]12` [Example 287, (E)-N-(2-((1R,5S,6s)-3-(5-fluoro-2-phenylpyrimidin-4-yl)-3-azabicyclo[3.1.0]hexan-6-yl)ethyl)-3-(pyridin-3-yl)acrylamide], for which the IC50 under setting [1] was < 0.01 µM. On the same count and under the same terms, then `CP(C)(=O)c1cccc(N2C[C@@H]3[C@@H](CCNC(=O)/C=C/c4cccnc4)[C@@H]3C2)c1` [Example 288, (E)-N-(2-((1R,5S,6s)-3-(3-(dimethylphosphoryl)phenyl)-3-azabicyclo[3.1.0]hexan-6-yl)ethyl)-3-(pyridin-3-yl)acrylamide], with 0.01 to 0.49 µM; and `O=C(/C=C/c1cccnc1)NCC[C@@]1(F)[C@@H]2CN(Cc3ccccc3)C[C@@H]21` [Example 289, (E)-N-(2-((1R,5S,6r)-3-benzyl-6-fluoro-3-azabicyclo[3.1.0]hexan-6-yl)ethyl)-3-(pyridin-3-yl)acrylamide], with 0.01 to 0.49 µM; and `Nc1ccc(/C=C/C(=O)NCC[C@@]2(F)[C@@H]3CN(c4ncccn4)C[C@@H]32)cn1` [Example 290, (E)-3-(6-aminopyridin-3-yl)-N-(2-((1R,5S,6r)-6-fluoro-3-(pyrimidin-2-yl)-3-azabicyclo[3.1.0]hexan-6-yl)ethyl)acrylamide], with 0.01 to 0.49 µM.

`CC(C)(C)OC(=O)N1C[C@@H]2[C@H](C1)[C@@]2(F)CCNC(=O)/C=C/c1cccnc1` [Example 291, (1R,5S,6r)-tert-butyl 6-fluoro-6-(2-((E)-3-(pyridin-3-yl)acrylamido)ethyl)-3-azabicyclo[3.1.0]hexane-3-carboxylate]: the IC50 under setting [1] lay within 0.01 to 0.49 µM. Still for that read-out and setting: next, `O=C(/C=C/c1cccnc1)NCC[C@@]1(F)[C@@H]2CN(c3nc(Cl)ncc3F)C[C@@H]21` [Example 292, (E)-N-(2-((1R,5S,6r)-3-(2-chloro-5-fluoropyrimidin-4-yl)-6-fluoro-3-azabicyclo[3.1.0]hexan-6-yl)ethyl)-3-(pyridin-3-yl)acrylamide]: 0.01 to 0.49 µM.
